From EP0227593A1, “Use of chelating agents” (THE HOSPITAL FOR SICK CHILDREN, priority 1985, dated 1987)

Columns and labels:
[1] = system: HL-60 cells; test: Colony growth of HL-60 cells; type: cell-based, human; conditions: concentration of 10 µm
Method: HL-60 cells, a promyeloctic leukemia cell line originally developed by Dr. R. Gallo, NIH, were used. Cells were grown in RPMI supplemented with 10 % heat inactivated fetal calf serum (FCS, Flow Laboratories, Rockville, MO) and 2 mM glutamine (Gibco, Berkely, CA), at densities ranging from 1-2 x 10⁵/ml to 1-10⁶/ml, in a 5 % CO₂ humidified atmosphere at 37°C.
(§1) HL-60 cells (10⁴/ml) were plated in 0.8 % methycellulose in RPMI-1640 medium supplemented with 20 % heat inactivated (56°C, 30 min) fetal calf serum at a final volume of 1 ml/culture plate. Cultures were set up in duplicates and maintained at 37°C in a 5 % CO₂ humidified atmosphere. Deferoxamine was dissolved in iron-free RPMI culture medium and added at the initiation of culture at different concentrations (1-10 µM). Colonies were counted at 7 days using an inverted microscope. A cluster of more than 20 cells was defined as a colony. Individual colonies were plucked from culture plates spread on glass slides and morphologically assessed after preparation with Wright's stain and non-specific esterase in the presence of fluoride (29). The self renewal capacity of cells was assessed according to McCulloch et al (30). RPMI-1640 medium was added to culture dishes for 2 hrs; the contents of each dish were then transferred into a tube, centrifuged and washed with medium three times. Cells from each dish were counted separately, and viability was assessed by trypan blue dye exclusion. Cells (1x10⁴/ml) from each dish were recultured in 0.8 % methylcellulose as before.

[2] = system: Lewis lung carcinoma; test: Tumour growth and metastases of Lewis lung carcinoma in mice; type: in vivo; conditions: 5 injections
Method: Female C57B16 mice (10 mice/group, 18-22 g body weight) were i.m. injected into the left hind leg with 0.1 ml of a tumour cell suspension of Lewis lung carcinoma (day 0).
Nine groups of animals were investigated. The test compounds were s.c. administered as follows: physiological saline: once daily for eleven days starting from day 0 up to day 10. DFO: 0.5 ml in distilled water in a dose of 10 and 30 mg/kg once daily for eleven days, on day 0 up to day 10 after tumour inocculation. 10-EDAM: 0.5 ml in distilled water in a dose of 3 and 6 mg/kg, once daily on days 1, 3, 5, 7 and 9 after tumour inocculation.
Both hind legs were removed from the body, weighed, and the difference between the tumour bearing and the tumour free leg was taken as the tumour weight of one idividual mouse.
Lungs were filled up with Pelikan-ink via the trachea, fixed in Fekete-solution and metastases (white spot on black back-ground) on the lung surface were counted microscopically.

[3] = system: HL-60 cells; test: HL-60 colony growth with cytostatic compounds alone or with 1 µM DFO; type: cell-based, human; conditions: cytostatic alone, various concentrations
Method: as §1, with “before. […]” for “before.”
Cultures were evaluated at day 6 using an inverted microscope (100 x magnification). A cluster of more than 20 cells was determined as a colony.

[4] = system: L-1210 tumour cells; test: L-1210 tumour growth in mice; type: in vivo; conditions: day 8
Method: One hour prior to kill on day 8 the mice received one ip injection of 0.002 mCi of 3H-thymidine per g body weight. Cells were harvested from the peritoneal cavity, the volume of ascites measured and the cell counts determined in a coulter counter, after lysis of red cells with zap-oglobin, for calculation of total tumour cell numbers. Also, of each sample cell smears were done, Feulgen stained and autoradiographed, whereby the number and percentage of labelled cells was determined and used as a measure for proliferating cells.

[5] = DFO 400 mg/kg/d s.c. minipump from day 2, Ara-C 200 mg/kg once ip on day 6

CC(=O)N([O-])CCCCCNC(=O)CCC(=O)N([O-])CCCCCNC(=O)CCC(=O)N([O-])CCCCCN.[Fe+3] [Ferrioxamine]
colony formation [1]: did not affect colony formation

CCC(Cc1cnc2nc(N)nc(N)c2n1)c1ccc(C(=O)N[C@@H](CCC(=O)O)C(=O)O)cc1 (stereo partly drawn) [10-EDAM, N-[4-[1-(2,4-Diamino-6-pteridinyl)but-2-yl]-benzoyl]-L-glutamic acid]
Number of lung metastases % of control ([2]; group 4: 10-EDAM 3 mg/kg s.c.): 66% | Number of lung metastases x̄ ± SD ([2]; group 4: 10-EDAM 3 mg/kg s.c.): 44 ± 18 | Tumour weight % of control ([2]; group 4: 10-EDAM 3 mg/kg s.c.): 91% | Tumour weight x̄ ± SD ([2]; group 4: 10-EDAM 3 mg/kg s.c.): 6.87 ± 0.47 g | Number of lung metastases % of control ([2]; group 5: 10-EDAM 6 mg/kg s.c.): 34% | Number of lung metastases x̄ ± SD ([2]; group 5: 10-EDAM 6 mg/kg s.c.): 23 ± 10 | Tumour weight % of control ([2]; group 5: 10-EDAM 6 mg/kg s.c.): 89% | Tumour weight x̄ ± SD ([2]; group 5: 10-EDAM 6 mg/kg s.c.): 6.70 ± 1.06 g

CN(Cc1cnc2nc(N)nc(N)c2n1)c1ccc(C(=O)N[C@@H](CCC(=O)O)C(=O)O)cc1 [methotrexate, L-(+)-N-[4-N-(2,4-diamino-6-pteridinyl)-methyl-N-methyl-amino]-benzoyl-L-glutamic acid]
HL-60 colony growth [3]: dose-dependent growth inhibitory effect

Nc1ccn([C@@H]2O[C@H](CO)[C@@H](O)[C@@H]2O)c(=O)n1 [Ara-C, 1-β-D-arabinofuranosyl-cytosine]
proportions of proliferating cells ([4]; 3H-thymidine labelled cells, same doses as Table 12): 26 % ± 6% | Number of cells in the peritoneal cavity % of control [4, 5]: 30% | Number of cells in the peritoneal cavity x̄ ± SD [4, 5]: 1.11 ± 0.40 * 10^8 | Number of proliferating cells in peritoneal cavity % of control [4, 5]: 24% | Number of proliferating cells in peritoneal cavity x̄ ± SD [4, 5]: 0.29 ± 0.10 * 10^8 | HL-60 colony growth [3]: inhibited colony growth in a dose-dependent manner
